The record followed here is patent US5969099A, “Growth factor analogs” (The Secretary of State for Defence, priority 1995, dated 1999).

Numbered stars: 1 amine (or outer) side, 2 acyl side, 3 side chain; on linkers, the order of the positions; unused ones are H or OH. Bridge positions count the residues as written; N and C are the ends. Square brackets hold non-standard residues; d marks the D form. Ends that are not written are not given here. Peptide text beside a SMILES is read from it. DABHC = 2-azabicyclo[2,2,1]heptane-3-carboxylic acid, D-form (1R,3R,4S), O=C([C@H]1[C@H]2CC[C@H](C2)N1[*:1])[*:2]; X2 = O=C([C@@H]1[C@@H]2CC[C@@H](C2)N1[*:1])[*:2]; X1 = O=C([C@H]1[C@H]2CC[C@H](C2)N1[*:1])[*:2]; LABHC = not defined here

Experiment [1] concerns NR6/HER cells. The experiment is classed as cell-based, mouse. The method, then: NR6 and NR6/HER cells (NR6 mouse fibroblasts transfected with human EGF-R expression plasmid) and HN5 squamous carcinoma cells (see Cowley, G. P. et al, Br. J. Cancer 1986, 53, 2230229) were routinely cultured in Dulbecco's Modified Eagles Medium (DMEM) containing 10% foetal bovine serum (FBS), 2 mM glutamine, non-essential amino acids, 10 U/ml penicillin and 10 μg/ml streptomycin at 37° C. in a humidified atmosphere of air containing 5% CO2. G418 (100 μg/ml) was also included in the NR6/HER growth medium as selection for EGF Receptor encoding transformants.
(§1) The ability of the Example 1 peptide to induce DNA synthesis in confluent and quiescent cells was assayed as described in Davies, D. E. et al, Br. J. Cancer 1994, 70, 263-269 but using NR6/HER or NR6 cells in place of human foreskin fibroplasts.

Experiment [2] concerns NR6/HER cells. The experiment is described as follows: Effect of peptide on the mitogenic response induced by TGFA. The class given is cell-based, mouse. Here is the method: as §1
Another experiment concerns the target T1, EGF Receptor (Homo sapiens, UniProt P00533).
T1 construct: endogenous in cells; host or cells: HN5 squamous carcinoma cells
The experiment is described as follows: EGF Receptor Tyr phosphorylation assay in HN5 cells (Western blotting). The experiment is classed as cell-based. The following applies: 10 minutes at room temperature. Here is the method: EGF Receptor Tyr phosphorylation assays were performed using HN5 cells at approximately 50% confluence in 96-well plates. Cells were plated in 10% FBS/DMEM and allowed to adhere overnight. Medium was removed and wells washed twice with DMEM. The peptide was diluted in DMEM and added in 50 μl volume and cells incubated for 10 minutes at room temperature. At the end of incubation, reagents were removed and the cells washed once with 50 μl/well buffered saline and then rapidly solubilised with 50 μl/well×1 sample buffer containing phosphatase and protease inhibitors (1 mM NaF, 1 mM Na3 VO4, 100 μM PMSF). Enhanced phosphorylation of the 170 kDa EGF-R was determined by Western Blotting after SDS polyacrylamide gel electrophoresis as in Holt, S. J. et al, Biochem. Pharmacol. 1994, 47, 117-126.
On the technique in general: Immunoblotting shows a protein as a band on a membrane.

The test system of another experiment is NR6 cells. Nature of the experiment: Mitogenic activity on parental NR6 cell line which lacks EGF-R. The class given is cell-based, mouse. The following applies: doses maximally stimulating for NR6/HER cells; FIG. 3.
Experiment [3] deals with human EGF Receptor on NR6/HER cells (NR6 mouse fibroblasts transfected with human EGF-R expression plasmid) (human, UniProt P00533). Nature of the experiment: cell-based or functional assay.

T1 sequence (P00533 25-1210): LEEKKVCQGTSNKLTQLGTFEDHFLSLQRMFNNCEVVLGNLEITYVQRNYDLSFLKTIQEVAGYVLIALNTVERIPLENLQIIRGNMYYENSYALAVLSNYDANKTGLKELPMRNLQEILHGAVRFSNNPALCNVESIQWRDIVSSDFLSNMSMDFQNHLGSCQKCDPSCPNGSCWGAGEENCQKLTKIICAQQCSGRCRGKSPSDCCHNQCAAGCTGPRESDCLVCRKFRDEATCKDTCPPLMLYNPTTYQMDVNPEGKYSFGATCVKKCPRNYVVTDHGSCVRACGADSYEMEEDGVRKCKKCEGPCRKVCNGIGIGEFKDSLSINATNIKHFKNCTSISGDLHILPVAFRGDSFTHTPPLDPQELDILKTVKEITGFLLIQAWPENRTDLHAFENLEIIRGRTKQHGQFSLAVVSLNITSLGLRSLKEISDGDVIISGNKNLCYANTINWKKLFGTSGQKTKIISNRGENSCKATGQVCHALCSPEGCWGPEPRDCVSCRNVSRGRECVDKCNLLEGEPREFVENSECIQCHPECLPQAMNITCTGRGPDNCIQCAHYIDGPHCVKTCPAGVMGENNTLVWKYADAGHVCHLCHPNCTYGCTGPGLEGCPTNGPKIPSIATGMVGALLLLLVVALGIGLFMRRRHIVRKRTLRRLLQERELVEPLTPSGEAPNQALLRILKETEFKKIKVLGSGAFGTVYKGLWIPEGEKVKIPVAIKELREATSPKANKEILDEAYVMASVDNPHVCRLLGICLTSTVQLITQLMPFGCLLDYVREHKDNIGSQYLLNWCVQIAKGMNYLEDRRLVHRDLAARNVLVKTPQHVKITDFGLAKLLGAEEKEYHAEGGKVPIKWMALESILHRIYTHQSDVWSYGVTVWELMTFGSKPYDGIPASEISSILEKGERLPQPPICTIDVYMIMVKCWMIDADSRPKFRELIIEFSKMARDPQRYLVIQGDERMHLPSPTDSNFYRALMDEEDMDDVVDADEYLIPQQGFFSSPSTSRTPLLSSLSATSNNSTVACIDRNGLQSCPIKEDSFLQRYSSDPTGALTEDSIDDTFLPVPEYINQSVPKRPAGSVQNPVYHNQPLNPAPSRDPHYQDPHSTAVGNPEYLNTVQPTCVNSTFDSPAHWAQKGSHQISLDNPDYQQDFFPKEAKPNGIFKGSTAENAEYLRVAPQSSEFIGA

In the case of `CC(C)C[C@@H]1NC(=O)[C@H](Cc2ccccc2)NC(=O)[C@H](CCCNC(=N)N)NC(=O)[C@@H](NC(=O)[C@@H](N)Cc2ccccc2)CSSC[C@@H](C(=O)O)NC(=O)[C@H](C)NC(=O)[C@H]2[C@H]3CC[C@H](C3)N2C(=O)[C@H](CCCCN)NC(=O)[C@H](CC(=O)O)NC(=O)[C@H](CCC(=O)O)NC(=O)[C@H](CCC(N)=O)NC(=O)[C@H](C(C)C)NC1=O` [Example 1 peptide] (H-FCRFLVQEDK[X1]AC-OH; disulfide 2-13), the EC50 with NR6/HER cells [1] was determined as 130 µM.
Consider `CC(C)C[C@@H]1NC(=O)[C@H](Cc2ccccc2)NC(=O)[C@H](CCCNC(=N)N)NC(=O)[C@@H](NC(=O)[C@@H](N)Cc2ccccc2)CSSC[C@@H](C(=O)O)NC(=O)[C@H](C)NC(=O)[C@@H]2[C@@H]3CC[C@@H](C3)N2C(=O)[C@H](CCCCN)NC(=O)[C@H](CC(=O)O)NC(=O)[C@H](CCC(=O)O)NC(=O)[C@H](CCC(N)=O)NC(=O)[C@H](C(C)C)NC1=O` [peptide incorporating LABHC] (H-FCRFLVQEDK[X2]AC-OH; disulfide 2-13; N-terminus assumed), for which the EC50 in the experiment with NR6/HER cells [1] amounted to 330 µM. In addition, the “effect on mitogenic response at maximal doses of TGFA” value in the experiment on NR6/HER cells [2] (maximal doses of TGFA, FIG. 2(b)) is recorded as “Similar, but less pronounced”. Also, the “effect on mitogenic response at suboptimal doses of TGFA” value with NR6/HER cells [2] (suboptimal doses of TGFA, FIG. 2(a)) was “Similar, but less pronounced”. Also, on EGF Receptor, the “EGF Receptor phosphorylation” value is listed as “Neither the Example 1 peptide nor the corresponding peptide incorporating LABHC appeared to lead to increased EGF Receptor phosphorylation”.
Consider PDGF, for which the “mitogenic response of NR6 cells (EGF-R negative)” value in the experiment on NR6 cells is reported as “responsiveness of the cells to a mitogenic stimulus was confirmed”.
On to FCRFLVQEDK[LABHC]AC (disulfide 2-13; reading uncertain), for which the “DNA synthesis (mitogenic activity), EC50” value in experiment [3] was 330 µM.
Turning to FCRFLVQEDK[DABHC]AC (disulfide 2-13), the “DNA synthesis (mitogenic activity), EC50” value in experiment [3] amounted to 130 µM.

Usually EC50 stands for the concentration giving half of the maximal effect. Read a low EC50 as an effect from little substance.
